# Starred links: 1 amine or outer side, 2 acyl side, 3 side chain; linkers in the order of their positions; H or OH if unused. Positions of bridges follow the written chain, without caps; N, C: chain ends. Non-standard residues stand in square brackets, D forms with d. Residues, ends and D or L forms follow the SMILES beside them. *: point of attachment. Phe(3-OCH2COOH) = N[C@@H](Cc1cccc(OCC(=O)O)c1)C(=O)O; Phe(4-COOH) = N[C@@H](Cc1ccc(C(=O)O)cc1)C(=O)O; Trp(7-aza) = N[C@@H](Cc1c[nH]c2ncccc12)C(=O)O; Piperazinyl(4-CH2COOH) = O=C(O)CN1CCN(*)CC1; Gly(N(CH2)3COOH) = O=C(O)CCCNCC(=O)O; NMe3Pal = CN[C@@H](Cc1cccnc1)C(=O)O; X1 = CCCCCCC[C@H](N[*:1])C(=O)[*:2]; NMeF = CN[C@@H](Cc1ccccc1)C(=O)O; 4Pal = N[C@@H](Cc1ccncc1)C(=O)O; hSer = N[C@@H](CCO)C(=O)O; NMeA = CN[C@@H](C)C(=O)O; Sar = CNCC(=O)O; X17 = CCCCC*; nBu = CCCC*
# Assays:
# Format in all cases: cell-based
# Myostatin [1] = biological target: T1, Myostatin (Homo sapiens, UniProt O14793); experiment: Reporter gene assay for myostatin signaling in HepG2 cell line, Evaluation Procedure (1), myostatin inhibition; settings: Method A: Myostatin 10 ng/mL; read-out: IC50 (Luciferase) Myostatin HepG2
# T1 construct: active myostatin (also called mature myostatin) is a homodimer consisting of two C-terminal growth factor domains; purchased R&D systems 788-G8/CF
# T1 sequence (O14793 267-375): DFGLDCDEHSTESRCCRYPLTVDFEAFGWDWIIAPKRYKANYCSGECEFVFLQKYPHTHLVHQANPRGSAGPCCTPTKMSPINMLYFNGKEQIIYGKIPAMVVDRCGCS
# Procedure, shortened: (§1)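 HepG2 cells transfected with pGL3(CAGA)12-luciferase reporter, serum-starved in 0.1% BSA medium, then stimulated with myostatin or GDF-11 plus 4-fold peptide dilutions (0.006–100 nmol/L for myostatin, 0.12–2000 nmol/L for GDF-11) for 20–24 h at 37 °C. Luminescence read with One-Glo; IC50 calculated.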
# Myostatin [2] = experiment: as above; settings: Method A; GDF-11 IC50 versus Myostatin IC50
# Procedure, shortened: as §1
# GDF-11 = biological target: T2, GDF-11 (Homo sapiens, UniProt O95390); experiment: Reporter gene assay for myostatin signaling in HepG2 cell line, Evaluation Procedure (1), GDF-11 inhibition; settings: Method A: GDF-11 10 ng/mL; read-out: IC50 (Luciferase) GDF-11 HepG2
# T2 construct: purchased R&D systems 1958-GD-G8/CF
# T2 sequence (O95390 299-407): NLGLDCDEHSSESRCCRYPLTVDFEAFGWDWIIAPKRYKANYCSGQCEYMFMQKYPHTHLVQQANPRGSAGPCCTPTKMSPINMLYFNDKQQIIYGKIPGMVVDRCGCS
# Procedure, shortened: as §1
SMILES,IC50 (Myostatin [1]),IC50 (GDF-11),Selectivity (Myostatin [2])
CCCCCCC[C@@H]1NC(=O)[C@H](Cc2ccccc2)N(C)C(=O)[C@H](CCCNC(=N)N)NC(=O)[C@H](Cc2ccc(O)cc2)NC(=O)[C@H](Cc2cccc(OCC(=O)O)c2)NC(=O)CN(C)C(=O)[C@H]([C@@H](C)CC)NC(=O)[C@H](Cc2ccccc2)N(C)C(=O)[C@H](Cc2ccc(O)cc2)NC(=O)[C@H](Cc2c[nH]c3ncccc23)NC(=O)[C@@H](CCC(=O)O)NC(=O)[C@H](C)NC(=O)CSC[C@H](C(=O)O)NC(=O)[C@H](Cc2ccccc2)N(C)C(=O)[C@H](C)N(C)C1=O [Myostatin_99_v219] ({CH2CO}-A[dE][Trp(7-aza)]Y[NMeF]I[Sar][Phe(3-OCH2COOH)]YR[NMeF][X1][NMeA][NMeF][dC]-OH; thioether N-15),2.7 nM,313 nM,116
CCCCCCC[C@@H]1NC(=O)[C@H](Cc2ccccc2)N(C)C(=O)[C@H](CCCNC(=N)N)NC(=O)[C@H](Cc2ccc(C(=O)O)cc2)NC(=O)[C@H](Cc2cccc(OCC(=O)O)c2)NC(=O)CN(C)C(=O)[C@H]([C@@H](C)CC)NC(=O)[C@H](Cc2ccccc2)N(C)C(=O)[C@H](Cc2ccc(O)cc2)NC(=O)[C@H](Cc2c[nH]c3ccccc23)NC(=O)[C@H](C)NC(=O)[C@H](C)NC(=O)CSC[C@H](C(=O)N2CCN(CC(=O)O)CC2)NC(=O)[C@H](Cc2ccccc2)N(C)C(=O)[C@H](C)N(C)C1=O [Myostatin_99_v221] ({CH2CO}-AAWY[NMeF]I[Sar][Phe(3-OCH2COOH)][Phe(4-COOH)]R[NMeF][X1][NMeA][NMeF][dC]-{Piperazinyl(4-CH2COOH)}; thioether N-15),0.9 nM,72 nM,80
CCCCCOC[C@@H]1NC(=O)[C@H](Cc2ccccc2)N(C)C(=O)[C@H](CCCNC(=N)N)NC(=O)[C@H](Cc2ccc(C(=O)O)cc2)NC(=O)[C@H](Cc2ccncc2)NC(=O)CN(C)C(=O)[C@H]([C@@H](C)CC)NC(=O)[C@H](Cc2ccccc2)N(C)C(=O)[C@H](Cc2ccc(O)cc2)NC(=O)[C@H](Cc2c[nH]c3ccccc23)NC(=O)[C@H](C)NC(=O)CN(CCCC(=O)O)C(=O)CSC[C@H](C(=O)O)NC(=O)[C@H](Cc2ccccc2)N(C)C(=O)[C@H](C)N(C)C1=O [Myostatin_99_v226] ({CH2CO}-[Gly(N(CH2)3COOH)]AWY[NMeF]I[Sar][4Pal][Phe(4-COOH)]R[NMeF]S(X17)[NMeA][NMeF][dC]-OH; thioether N-15),10.2 nM,3990 nM,391
CCCCOCC[C@@H]1NC(=O)[C@H](Cc2ccccc2)N(C)C(=O)[C@H](CCCNC(=N)N)NC(=O)[C@H](Cc2ccc(C(=O)O)cc2)NC(=O)[C@H](Cc2ccncc2)NC(=O)CN(C)C(=O)[C@H]([C@@H](C)CC)NC(=O)[C@H](Cc2ccccc2)N(C)C(=O)[C@H](Cc2ccc(O)cc2)NC(=O)[C@H](Cc2c[nH]c3ccccc23)NC(=O)[C@H](C)NC(=O)CN(CCCC(=O)O)C(=O)CSC[C@H](C(=O)O)NC(=O)[C@H](Cc2ccccc2)N(C)C(=O)[C@H](C)N(C)C1=O [Myostatin_99_v227] ({CH2CO}-[Gly(N(CH2)3COOH)]AWY[NMeF]I[Sar][4Pal][Phe(4-COOH)]R[NMeF][hSer](nBu)[NMeA][NMeF][dC]-OH; thioether N-15),20.8 nM,683 nM,33

# Further lines, with some results ahead:
IC50 (Myostatin [1]),IC50 (GDF-11),SMILES,Selectivity (Myostatin [2])
1.1 nM,232 nM,CCCCCCC[C@@H]1NC(=O)[C@H](Cc2cccnc2)N(C)C(=O)[C@H](CCCNC(=N)N)NC(=O)[C@H](Cc2ccc(C(=O)O)cc2)NC(=O)[C@H](Cc2cccc(OCC(=O)O)c2)NC(=O)CN(C)C(=O)[C@H]([C@@H](C)CC)NC(=O)[C@H](Cc2ccccc2)N(C)C(=O)[C@H](Cc2ccc(O)cc2)NC(=O)[C@H](Cc2c[nH]c3ccccc23)NC(=O)[C@H](C)NC(=O)[C@H](C)NC(=O)CSC[C@H](C(=O)O)NC(=O)[C@H](Cc2ccccc2)N(C)C(=O)[C@H](C)N(C)C1=O [Myostatin_99_v211] ({CH2CO}-AAWY[NMeF]I[Sar][Phe(3-OCH2COOH)][Phe(4-COOH)]R[NMe3Pal][X1][NMeA][NMeF][dC]-OH; thioether N-15),211
3.3 nM,278 nM,CCCCCCC[C@@H]1NC(=O)[C@H](Cc2ccccc2)NC(=O)[C@H](CCCNC(=N)N)NC(=O)[C@H](Cc2ccc(C(=O)O)cc2)NC(=O)[C@H](Cc2cccc(OCC(=O)O)c2)NC(=O)CN(C)C(=O)[C@H]([C@@H](C)CC)NC(=O)[C@H](Cc2ccccc2)N(C)C(=O)[C@H](Cc2ccc(O)cc2)NC(=O)[C@H](Cc2c[nH]c3ccccc23)NC(=O)[C@H](C)NC(=O)[C@H](C)NC(=O)CSC[C@H](C(=O)O)NC(=O)[C@H](Cc2ccccc2)N(C)C(=O)[C@H](C)N(C)C1=O [Myostatin_99_v212] ({CH2CO}-AAWY[NMeF]I[Sar][Phe(3-OCH2COOH)][Phe(4-COOH)]RF[X1][NMeA][NMeF][dC]-OH; thioether N-15),84
6.6 nM,1320 nM,CCCCCCC[C@@H]1NC(=O)[C@H](Cc2ccccc2)N(C)C(=O)[C@H](CCCNC(=N)N)NC(=O)[C@H](Cc2ccc(C(=O)O)cc2)NC(=O)[C@H](Cc2cccc(OCC(=O)O)c2)NC(=O)CN(C)C(=O)[C@H]([C@@H](C)CC)NC(=O)[C@H](Cc2ccccc2)N(C)C(=O)[C@H](Cc2ccc(O)cc2)NC(=O)[C@H](Cc2c[nH]c3ccccc23)NC(=O)[C@H](C)NC(=O)[C@H](C)NC(=O)CSC[C@H](C(=O)O)NC(=O)[C@H](Cc2cccnc2)N(C)C(=O)[C@H](C)N(C)C1=O [Myostatin_99_v214] ({CH2CO}-AAWY[NMeF]I[Sar][Phe(3-OCH2COOH)][Phe(4-COOH)]R[NMeF][X1][NMeA][NMe3Pal][dC]-OH; thioether N-15),201
1.9 nM,202 nM,CCCCCCC[C@@H]1NC(=O)[C@H](Cc2ccccc2)N(C)C(=O)[C@H](CCCNC(=N)N)NC(=O)[C@H](Cc2ccc(C(=O)O)cc2)NC(=O)[C@H](Cc2cccc(OCC(=O)O)c2)NC(=O)CN(C)C(=O)[C@H]([C@@H](C)CC)NC(=O)[C@H](Cc2ccccc2)N(C)C(=O)[C@H](Cc2ccc(O)cc2)NC(=O)[C@H](Cc2c[nH]c3ccccc23)NC(=O)[C@H](C)NC(=O)[C@H](C)NC(=O)CSC[C@@H](C(=O)O)NC(=O)[C@H](Cc2ccccc2)N(C)C(=O)[C@H](C)N(C)C1=O [Myostatin_99_v215] ({CH2CO}-AAWY[NMeF]I[Sar][Phe(3-OCH2COOH)][Phe(4-COOH)]R[NMeF][X1][NMeA][NMeF]C-OH; thioether N-15),106
3 nM,696 nM,CCCCCCC[C@@H]1NC(=O)[C@H](Cc2ccccc2)N(C)C(=O)[C@H](CCCNC(=N)N)NC(=O)[C@H](Cc2ccc(C(=O)O)cc2)NC(=O)[C@H](Cc2cccc(OCC(=O)O)c2)NC(=O)CN(C)C(=O)[C@H]([C@@H](C)CC)NC(=O)[C@H](Cc2ccccc2)N(C)C(=O)[C@H](Cc2ccc(O)cc2)NC(=O)[C@H](Cc2c[nH]c3ccccc23)NC(=O)[C@H](C)NC(=O)[C@H](CC(N)=O)NC(=O)CSC[C@H](C(=O)O)NC(=O)[C@H](Cc2ccccc2)N(C)C(=O)[C@H](C)N(C)C1=O [Myostatin_99_v217] ({CH2CO}-NAWY[NMeF]I[Sar][Phe(3-OCH2COOH)][Phe(4-COOH)]R[NMeF][X1][NMeA][NMeF][dC]-OH; thioether N-15),232
